In PubChem BioAssay (NCI):
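Each compound was tested at five concentrations against cells in 96-well plates for 48 hours. GI50 marks 50% less growth. At the TGI there is no net growth.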

Tests used:
Assay in all cases: NCI-60 cell line screen, 48 h
CAKI-1 renal = test system: CAKI-1 renal
DLD-1 colon = test system: DLD-1 colon
DMS 273 small cell lung = test system: DMS 273 small cell lung
HCT-15 colon = test system: HCT-15 colon
M19-MEL melanoma = test system: M19-MEL melanoma
MCF7 breast = test system: MCF7 breast
RPMI-8226 leukemia = test system: RPMI-8226 leukemia
SN12C renal = test system: SN12C renal
SNB-19 CNS = test system: SNB-19 CNS
ACHN renal = test system: ACHN renal
MDA-MB-231 breast = test system: MDA-MB-231 breast
MDA-N = test system: MDA-N

Structure (SMILES) | TGI (CAKI-1 renal) [µM] | TGI (DLD-1 colon) [µM] | TGI (DMS 273 small cell lung) [µM] | TGI (HCT-15 colon) [µM] | TGI (M19-MEL melanoma) [µM] | TGI (MCF7 breast) [µM] | TGI (RPMI-8226 leukemia) [µM] | TGI (SN12C renal) [µM] | TGI (SNB-19 CNS) [µM] | TGI (ACHN renal) [µM] | TGI (MDA-MB-231 breast) [µM] | TGI (MDA-N) [µM] | GI50 (ACHN renal) [µM] | GI50 (MDA-MB-231 breast) [µM]
NC(=O)c1ncn2c1NC(=O)CC2 | > 100 | > 100 | > 100 | > 100 | > 100 | > 100 | > 100 | > 100 | > 100 |  |  |  |  | 
COc1c(O)c(O)cc2c1-c1ccc(OC)c(=O)cc1C(NC(C)=O)CC2 (centres undefined) | 95.6 | > 100 | > 59.8 | > 100 | 23.7 | 11.9 | 54.9 | 42.5 | > 100 | > 96.5 | > 59.4 | 4.84 |  | 
O=C(OCc1ccccc1)C(Cc1ccccc1)N(Cc1ccccc1)Cc1ccccc1 (centres undefined) | > 100 | > 100 | > 100 | > 100 | > 100 |  | > 100 | > 100 | > 100 | > 100 |  |  |  | 
COc1cc2c(c(O)c1O)-c1ccc(OC)c(=O)cc1C(NC(C)=O)CC2 (centres undefined) | > 100 | > 100 | > 100 | > 100 | 26.1 |  | > 43.7 | > 80.8 | > 100 | > 100 |  |  |  | 
Cc1c2ccncc2c(C)c2c1[nH]c1ccccc12 | 3.81 | 2.33 | 2.22 | 2.73 | 2.16 | 2.54 | 3.11 | 4.63 | 2.09 | 4.32 | 6.03 |  | 0.473 | 1.45
CC1(C)OC2CC(=O)OCC23C1CC(=O)C1(C)C3CCC2(C)C(c3ccoc3)OC(=O)C3OC321 (centres undefined) | > 125 | > 125 | > 125 | > 125 | > 125 | > 70.3 | > 125 | > 39.5 | > 125 |  |  |  |  | 
C[C@]12CC[C@H](O)C=C1CC[C@@H]1[C@@H]2CC[C@]2(C)C(c3ccc(=O)oc3)CC[C@]12O (some centres undefined) | 0.0225 | 0.0392 | 0.0427 | 0.0803 | 0.071 | 0.173 | 0.0733 | 0.0773 | 0.237 |  |  |  |  | 
O=[N+]([O-])c1ccc(C2=Nc3ccccc3SC(c3ccccc3)C2)cc1 (centres undefined) | 35.8 | 48.3 | 27.5 | 30.9 | 31 |  | 48.4 | 32.2 | 32.3 | 36.2 |  |  |  | 
